# Assay results taken from patent US8748383B2, “Method for treating bone related diseases and calcium disorders” (Novartis AG, priority 2003, dated 2014).
# Tests used:
# [1] = Water solubility of delivery agent
# [2] = in vivo
Compound,water solubility [1],absorbed by the gastro-intestinal tract [2]
"O=C(O)CCCCCCCNC(=O)c1cc(Cl)ccc1O [5 CNAC, N-(5-chlorosalicyloyl)-8-aminocaprylic acid]",very water soluble,–
"O=C(O)CCCCCCCCCNC(=O)c1ccccc1O [SNAD, N-(10-[2-hydroxybenzoyl]amino)decanoic acid]",–,greater than 90%
